In ChEMBL document CHEMBL1136174, “Synthesis and antimycobacterial activity of capuramycin analogues. Part 1: substitution of the azepan-2-one moiety of capuramycin” (Bioorg Med Chem Lett, 2003):
Converted amounts (≈) assume the structure as drawn.

Legend:
[1] = system: Mycolicibacterium smegmatis; assay: Antimycobacterial activity against Mycobacterium smegmatis (SANK 75075); type: functional
[2] = target: T1, Phospho-N-acetylmuramoyl-pentapeptide-transferase (Escherichia coli K-12, UniProt P0A6W3); assay: Inhibitory activity against translocase I
T1 sequence (P0A6W3 whole entry): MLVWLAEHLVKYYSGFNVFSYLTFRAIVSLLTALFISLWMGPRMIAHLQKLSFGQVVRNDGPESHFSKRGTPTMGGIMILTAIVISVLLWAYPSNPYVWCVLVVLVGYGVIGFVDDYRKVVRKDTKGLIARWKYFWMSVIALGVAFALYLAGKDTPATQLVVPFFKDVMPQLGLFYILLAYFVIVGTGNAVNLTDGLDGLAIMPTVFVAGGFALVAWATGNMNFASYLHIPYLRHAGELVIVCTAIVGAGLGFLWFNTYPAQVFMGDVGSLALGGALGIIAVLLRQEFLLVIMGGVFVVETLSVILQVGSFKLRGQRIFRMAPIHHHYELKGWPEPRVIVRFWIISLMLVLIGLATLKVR

MIC [1] [µg/mL]	IC50 [2] [nM]	Compound
> 50	> 3820	CCCCCCCCCCCCCCNC(=O)C1=C[C@H](O)[C@H](O)[C@@H](O[C@@H](C(N)=O)[C@H]2O[C@@H](n3ccc(=O)[nH]c3=O)[C@H](O)[C@@H]2OC)O1
25 (≈ 43.4 µM)	208	CO[C@H]1[C@@H](O)[C@H](n2ccc(=O)[nH]c2=O)O[C@@H]1[C@@H](O[C@H]1OC(C(=O)Nc2ccc(C(C)C)cc2)=C[C@H](O)[C@@H]1O)C(N)=O
25 (≈ 39 µM)	35.9	CO[C@H]1[C@@H](O)[C@H](n2ccc(=O)[nH]c2=O)O[C@@H]1[C@@H](O[C@H]1OC(C(=O)Nc2ccccc2OCc2ccccc2)=C[C@H](O)[C@@H]1O)C(N)=O
100 (≈ 184 µM)	257	CCOCCCNC(=O)C1=C[C@H](O)[C@H](O)[C@@H](O[C@@H](C(N)=O)[C@H]2O[C@@H](n3ccc(=O)[nH]c3=O)[C@H](O)[C@@H]2OC)O1
12.5 (≈ 24.3 µM)	544	CCCCNC(=O)C1=C[C@H](O)[C@H](O)[C@@H](O[C@@H](C(N)=O)[C@H]2O[C@@H](n3ccc(=O)[nH]c3=O)[C@H](O)[C@@H]2OC)O1
50 (≈ 88.9 µM)	96	CCc1ccccc1NC(=O)C1=C[C@H](O)[C@H](O)[C@@H](O[C@@H](C(N)=O)[C@H]2O[C@@H](n3ccc(=O)[nH]c3=O)[C@H](O)[C@@H]2OC)O1
> 100	179	CO[C@H]1[C@@H](O)[C@H](n2ccc(=O)[nH]c2=O)O[C@@H]1[C@@H](O[C@H]1OC(C(=O)NCCO)=C[C@H](O)[C@@H]1O)C(N)=O
25 (≈ 45.1 µM)	48.7	CO[C@H]1[C@@H](O)[C@H](n2ccc(=O)[nH]c2=O)O[C@@H]1[C@@H](O[C@H]1OC(C(=O)NC2CCCCCC2)=C[C@H](O)[C@@H]1O)C(N)=O
12.5 (≈ 23.1 µM)	55.5	CO[C@H]1[C@@H](O)[C@H](n2ccc(=O)[nH]c2=O)O[C@@H]1[C@@H](O[C@H]1OC(C(=O)NC2CCCCC2)=C[C@H](O)[C@@H]1O)C(N)=O
> 100	> 4560	CO[C@H]1[C@@H](O)[C@H](n2ccc(=O)[nH]c2=O)O[C@@H]1[C@@H](O[C@H]1OC(C(=O)N(C)c2ccccc2)=C[C@H](O)[C@@H]1O)C(N)=O
50 (≈ 91.2 µM)	219	CO[C@H]1[C@@H](O)[C@H](n2ccc(=O)[nH]c2=O)O[C@@H]1[C@@H](O[C@H]1OC(C(=O)NCc2ccccc2)=C[C@H](O)[C@@H]1O)C(N)=O
50 (≈ 84.4 µM)	32.1	COc1cccc(CCNC(=O)C2=C[C@H](O)[C@H](O)[C@@H](O[C@@H](C(N)=O)[C@H]3O[C@@H](n4ccc(=O)[nH]c4=O)[C@H](O)[C@@H]3OC)O2)c1
12.5 (≈ 20.2 µM)	259	CCCCCCc1ccc(NC(=O)C2=C[C@H](O)[C@H](O)[C@@H](O[C@@H](C(N)=O)[C@H]3O[C@@H](n4ccc(=O)[nH]c4=O)[C@H](O)[C@@H]3OC)O2)cc1
> 100	204	CO[C@H]1[C@@H](O)[C@H](n2ccc(=O)[nH]c2=O)O[C@@H]1[C@@H](O[C@H]1OC(C(=O)NCC(c2ccccc2)c2ccccc2)=C[C@H](O)[C@@H]1O)C(N)=O
25 (≈ 43.1 µM)	69	CO[C@H]1[C@@H](O)[C@H](n2ccc(=O)[nH]c2=O)O[C@@H]1[C@@H](O[C@H]1OC(C(=O)Nc2ccc([N+](=O)[O-])cc2)=C[C@H](O)[C@@H]1O)C(N)=O
50 (≈ 86.4 µM)	484	COc1ccccc1CNC(=O)C1=C[C@H](O)[C@H](O)[C@@H](O[C@@H](C(N)=O)[C@H]2O[C@@H](n3ccc(=O)[nH]c3=O)[C@H](O)[C@@H]2OC)O1
12.5 (≈ 22.2 µM)	35.6	CCc1ccc(NC(=O)C2=C[C@H](O)[C@H](O)[C@@H](O[C@@H](C(N)=O)[C@H]3O[C@@H](n4ccc(=O)[nH]c4=O)[C@H](O)[C@@H]3OC)O2)cc1
50 (≈ 86.4 µM)	64	CCOc1ccccc1NC(=O)C1=C[C@H](O)[C@H](O)[C@@H](O[C@@H](C(N)=O)[C@H]2O[C@@H](n3ccc(=O)[nH]c3=O)[C@H](O)[C@@H]2OC)O1
100 (≈ 199 µM)	1200	CO[C@H]1[C@@H](O)[C@H](n2ccc(=O)[nH]c2=O)O[C@@H]1[C@@H](O[C@H]1OC(C(=O)NCCN)=C[C@H](O)[C@@H]1O)C(N)=O
12.5 (≈ 20.9 µM)	33.5	CO[C@H]1[C@@H](O)[C@H](n2ccc(=O)[nH]c2=O)O[C@@H]1[C@@H](O[C@H]1OC(C(=O)NCCc2cccc(Cl)c2)=C[C@H](O)[C@@H]1O)C(N)=O
> 100	57	COC(=O)C1=C[C@H](O)[C@H](O)[C@@H](O[C@@H](C(N)=O)[C@H]2O[C@@H](n3ccc(=O)[nH]c3=O)[C@H](O)[C@@H]2OC)O1
25 (≈ 41.8 µM)	184	CO[C@H]1[C@@H](O)[C@H](n2ccc(=O)[nH]c2=O)O[C@@H]1[C@@H](O[C@H]1OC(C(=O)NCc2ccc3ccccc3c2)=C[C@H](O)[C@@H]1O)C(N)=O

MIC [1] [µg/mL]	IC50 [2] [nM]	Compound
50 (≈ 88.3 µM)	353	CO[C@H]1[C@@H](O)[C@H](n2ccc(=O)[nH]c2=O)O[C@@H]1[C@@H](O[C@H]1OC(C(=O)NCc2ccc(F)cc2)=C[C@H](O)[C@@H]1O)C(N)=O
12.5 (≈ 23 µM)	55.3	CCCCCCNC(=O)C1=C[C@H](O)[C@H](O)[C@@H](O[C@@H](C(N)=O)[C@H]2O[C@@H](n3ccc(=O)[nH]c3=O)[C@H](O)[C@@H]2OC)O1
> 100	> 4730	CCCCN(C)C(=O)C1=C[C@H](O)[C@H](O)[C@@H](O[C@@H](C(N)=O)[C@H]2O[C@@H](n3ccc(=O)[nH]c3=O)[C@H](O)[C@@H]2OC)O1
50 (≈ 91.5 µM)	128	CO[C@H]1[C@@H](O)[C@H](n2ccc(=O)[nH]c2=O)O[C@@H]1[C@@H](O[C@H]1OC(C(=O)NCCCSC)=C[C@H](O)[C@@H]1O)C(N)=O
25 (≈ 41.9 µM)	33.5	CO[C@H]1[C@@H](O)[C@H](n2ccc(=O)[nH]c2=O)O[C@@H]1[C@@H](O[C@H]1OC(C(=O)NCCc2ccc(Cl)cc2)=C[C@H](O)[C@@H]1O)C(N)=O
50 (≈ 88.9 µM)	2130	CO[C@H]1[C@@H](O)[C@H](n2ccc(=O)[nH]c2=O)O[C@@H]1[C@@H](O[C@H]1OC(C(=O)NCc2ccc(C)cc2)=C[C@H](O)[C@@H]1O)C(N)=O
25 (≈ 44.3 µM)	54.9	COc1ccccc1NC(=O)C1=C[C@H](O)[C@H](O)[C@@H](O[C@@H](C(N)=O)[C@H]2O[C@@H](n3ccc(=O)[nH]c3=O)[C@H](O)[C@@H]2OC)O1
> 100	658	COc1cc(CNC(=O)C2=C[C@H](O)[C@H](O)[C@@H](O[C@@H](C(N)=O)[C@H]3O[C@@H](n4ccc(=O)[nH]c4=O)[C@H](O)[C@@H]3OC)O2)cc(OC)c1OC
> 100	820	CO[C@H]1[C@@H](O)[C@H](n2ccc(=O)[nH]c2=O)O[C@@H]1[C@@H](O[C@H]1OC(C(=O)N2CCCC2)=C[C@H](O)[C@@H]1O)C(N)=O
> 100	381	CNC(=O)C1=C[C@H](O)[C@H](O)[C@@H](O[C@@H](C(N)=O)[C@H]2O[C@@H](n3ccc(=O)[nH]c3=O)[C@H](O)[C@@H]2OC)O1
> 100	320	CO[C@H]1[C@@H](O)[C@H](n2ccc(=O)[nH]c2=O)O[C@@H]1[C@@H](O[C@H]1OC(C(=O)NCCCCO)=C[C@H](O)[C@@H]1O)C(N)=O
12.5 (≈ 21.9 µM)	22.8	CO[C@H]1[C@@H](O)[C@H](n2ccc(=O)[nH]c2=O)O[C@@H]1[C@@H](O[C@H]1OC(C(=O)Nc2cccc(F)c2F)=C[C@H](O)[C@@H]1O)C(N)=O
12.5 (≈ 21.7 µM)	53.8	CCCc1ccc(NC(=O)C2=C[C@H](O)[C@H](O)[C@@H](O[C@@H](C(N)=O)[C@H]3O[C@@H](n4ccc(=O)[nH]c4=O)[C@H](O)[C@@H]3OC)O2)cc1
50 (≈ 84.4 µM)	54	COc1ccccc1CCNC(=O)C1=C[C@H](O)[C@H](O)[C@@H](O[C@@H](C(N)=O)[C@H]2O[C@@H](n3ccc(=O)[nH]c3=O)[C@H](O)[C@@H]2OC)O1
50 (≈ 84.4 µM)	338	CO[C@H]1[C@@H](O)[C@H](n2ccc(=O)[nH]c2=O)O[C@@H]1[C@@H](O[C@H]1OC(C(=O)NCc2ccc3c(c2)OCO3)=C[C@H](O)[C@@H]1O)C(N)=O
100 (≈ 167 µM)	25.1	CO[C@H]1[C@@H](O)[C@H](n2ccc(=O)[nH]c2=O)O[C@@H]1[C@@H](O[C@H]1OC(C(=O)Nc2nc(C(C)(C)C)cs2)=C[C@H](O)[C@@H]1O)C(N)=O
12.5 (≈ 20.7 µM)	–	CO[C@H]1[C@@H](O)[C@H](n2ccc(=O)[nH]c2=O)O[C@@H]1[C@@H](O[C@H]1OC(C(=O)Nc2ccc(C(F)(F)F)cc2)=C[C@H](O)[C@@H]1O)C(N)=O
25 (≈ 41.8 µM)	434	CCCCCCCCCCNC(=O)C1=C[C@H](O)[C@H](O)[C@@H](O[C@@H](C(N)=O)[C@H]2O[C@@H](n3ccc(=O)[nH]c3=O)[C@H](O)[C@@H]2OC)O1
12.5 (≈ 22.2 µM)	37.3	CO[C@H]1[C@@H](O)[C@H](n2ccc(=O)[nH]c2=O)O[C@@H]1[C@@H](O[C@H]1OC(C(=O)NCCc2ccccc2)=C[C@H](O)[C@@H]1O)C(N)=O
100 (≈ 173 µM)	1210	COc1ccc(CNC(=O)C2=C[C@H](O)[C@H](O)[C@@H](O[C@@H](C(N)=O)[C@H]3O[C@@H](n4ccc(=O)[nH]c4=O)[C@H](O)[C@@H]3OC)O2)cc1
25 (≈ 44 µM)	22.9	CO[C@H]1[C@@H](O)[C@H](n2ccc(=O)[nH]c2=O)O[C@@H]1[C@@H](O[C@H]1OC(C(=O)NCCc2cccs2)=C[C@H](O)[C@@H]1O)C(N)=O
50 (≈ 88.9 µM)	231	CO[C@H]1[C@@H](O)[C@H](n2ccc(=O)[nH]c2=O)O[C@@H]1[C@@H](O[C@H]1OC(C(=O)N[C@@H](C)c2ccccc2)=C[C@H](O)[C@@H]1O)C(N)=O
